Assay results from US11918582B2 (RAPT Therapeutics, Inc., priority 2021, dated 2024).
Counter-ions that a name gives are not always drawn.

Biological target: T1, human HPK1 (MAP4K1) (Homo sapiens, UniProt Q92918)
T1 construct: Recombinant human HPK1 kinase domain was obtained from ThermoFisher (Cat. #PV6357) and SignalChem (Cat. #M23-11G); purchased ThermoFisher; SignalChem PV6357; M23-11G
T1 sequence (Q92918 17-274 limits assumed): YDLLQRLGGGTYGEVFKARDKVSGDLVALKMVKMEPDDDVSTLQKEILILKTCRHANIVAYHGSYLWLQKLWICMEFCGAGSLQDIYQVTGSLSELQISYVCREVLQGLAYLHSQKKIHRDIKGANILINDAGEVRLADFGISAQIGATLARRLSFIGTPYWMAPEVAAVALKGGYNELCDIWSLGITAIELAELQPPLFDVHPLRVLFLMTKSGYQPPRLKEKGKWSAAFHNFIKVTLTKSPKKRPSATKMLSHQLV
Test: Biochemical assay for activity against HPK1 (ADP-Glo, MBP substrate)
Conditions: recombinant human HPK1 kinase domain, 1 nM enzyme, ADP-Glo luminescence
Method in brief: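 Recombinant human HPK1 kinase domain (1 nM solution) preincubated 15 min at room temperature with compounds in pH 7.5 HEPES buffer with NaCl, TCEP, MgCl2, Tween-20, BSA. MBP substrate with ATP added, reaction run 2 h at room temperature. ADP formation read by ADP-Glo luminescence to give IC50.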

SMILES	IC50 [nM]
Cc1nn(C2COC2)c2nc(Nc3ccc4c(c3)CN(C)CC4)ncc12 [Example 2, 2-methyl-N-[3-methyl-1-(oxetan-3-yl)pyrazolo[3,4-d]pyrimidin-6-yl]-3,4-dihydro-1H-isoquinolin-7-amine]	< 100
COc1cc2c(cc1Nc1ncc3cnn([C@H](C)CCO)c3n1)CN(C)CC2 [Example 99, (3R)-3-[6-[(6-methoxy-2-methyl-3,4-dihydro-1H-isoquinolin-7-yl)amino]pyrazolo[3,4-d]pyrimidin-1-yl]butan-1-ol]	< 100
COc1cc2c(cc1Nc1ncc3cnn(C4CC(CO)(CO)C4)c3n1)CN(C)CC2 [Example 77, [1-(hydroxymethyl)-3-[6-[(6-methoxy-2-methyl-3,4-dihydro-1H-isoquinolin-7-yl)amino]pyrazolo[3,4-d]pyrimidin-1-yl]cyclobutyl]dimethanol]	< 100
COc1cc2c(cc1Nc1ncc3c(C)nn([C@H]4C[C@H](CNS(C)(=O)=O)C4)c3n1)CN(C)CC2 [Example 132, N-(((1r,3r)-3-(6-((6-methoxy-2-methyl-1,2,3,4-tetrahydroisoquinolin-7-yl)amino)-3-methyl-1H-pyrazolo[3,4-d]pyrimidin-1-yl)cyclobutyl)methyl)methanesulfonamide]	< 100
COc1cc2c(cc1Nc1ncc3cnn([C@H]4CCCC[C@@H]4C)c3n1)CN(C)CC2 (racemic) [Example 30, rac-6-methoxy-2-methyl-N-(1-((1S,2S)-2-methylcyclohexyl)-1H-pyrazolo[3,4-d]pyrimidin-6-yl)-1,2,3,4-tetrahydroisoquinolin-7-amine]	100 to 250
CO[C@H]1CC[C@H](n2ncc3cnc(Nc4ccc5c(c4)CN(C)CC5)nc32)CC1 [Example 35, N-(1-((1r,4r)-4-methoxycyclohexyl)-1H-pyrazolo[3,4-d]pyrimidin-6-yl)-2-methyl-1,2,3,4-tetrahydroisoquinolin-7-amine]	< 100
COc1cc2c(cc1Nc1ncc3cnn(C[C@@H]4CCCN4C(C)=O)c3n1)CN(C)CC2 [Example 110, (S)-1-(2-((6-((6-methoxy-2-methyl-1,2,3,4-tetrahydroisoquinolin-7-yl)amino)-1H-pyrazolo[3,4-d]pyrimidin-1-yl)methyl)pyrrolidin-1-yl)ethan-1-one]	< 100
COc1cc2c(cc1Nc1ncc3cnn(C[C@@H]4C[C@@H]4C(=O)O)c3n1)CN(C)CC2 (racemic) [Example 188, (cis)-2-((6-((6-methoxy-2-methyl-1,2,3,4-tetrahydroisoquinolin-7-yl)amino)-1H-pyrazolo[3,4-d]pyrimidin-1-yl)methyl)cyclopropane-1-carboxylic Acid]	< 100
CC(C)n1ncc2cnc(Nc3ccc4c(c3)CN(C)CC4)nc21 [Example 101, N-(1-isopropyl-1H-pyrazolo[3,4-d]pyrimidin-6-yl)-2-methyl-1,2,3,4-tetrahydroisoquinolin-7-amine]	< 100
COc1cc2c(cc1Nc1ncc3cnn([C@H]4CCC[C@H](CO)C4)c3n1)CN(C)CC2 [Example 63, ((1S,3S)-3-(6-((6-methoxy-2-methyl-1,2,3,4-tetrahydroisoquinolin-7-yl)amino)-1H-pyrazolo[3,4-d]pyrimidin-1-yl)cyclohexyl)methanol hydrochloride]	< 100
COc1cc2c(cc1Nc1ncc3cnn(CCCO)c3n1)CN(C)CC2 [Example 96, 3-[6-[(6-methoxy-2-methyl-3,4-dihydro-1H-isoquinolin-7-yl)amino]pyrazolo[3,4-d]pyrimidin-1-yl]propan-1-ol]	< 100
COc1cc2c(cc1Nc1ncc3cnn(C[C@H]4CCCCN4C(C)=O)c3n1)CN(C)CC2 [Example 211, 1-[(2R)-2-[[6-[(6-methoxy-2-methyl-3,4-dihydro-1H-isoquinolin-7-yl)amino]pyrazolo[3,4-d]pyrimidin-1-yl]methyl]-1-piperidyl]ethenone hydrochloride]	100 to 250
COc1cc2c(cc1Nc1ncc3cnn(C[C@@H]4CCCN(C(C)=O)C4)c3n1)CN(C)CC2 [Example 140, 1-[(3R)-3-[[6-[(6-methoxy-2-methyl-3,4-dihydro-1H-isoquinolin-7-yl)amino]pyrazolo[3,4-d]pyrimidin-1-yl]methyl]-1-piperidyl]ethan-1-one]	< 100
COc1cc2c(cc1Nc1ncc3cnn([C@H]4CC[C@H](NS(C)(=O)=O)CC4)c3n1)CN(C)CC2 [Example 79, trans-N-[4-[6-[(6-methoxy-2-methyl-3,4-dihydro-1H-isoquinolin-7-yl)amino]pyrazolo[3,4-d]pyrimidin-1-yl]cyclohexyl]methanesulfonamide]	< 100
COc1cc2c(cc1Nc1ncc3cnn(C[C@@H]4CCCC[C@H]4CO)c3n1)CN(C)CC2 (racemic) [Example 165, [rac-trans-2-[[6-[(6-methoxy-2-methyl-3,4-dihydro-1H-isoquinolin-7-yl)amino]pyrazolo[3,4-d]pyrimidin-1-yl]methyl]cyclohexyl]methanol]	< 100
COc1cc2c(cc1Nc1ncc3cnn(C[C@@H]4CCC[C@H]4C(=O)O)c3n1)CN(C)CC2 [Example 157, (1R,2R)-2-[[6-[(6-methoxy-2-methyl-3,4-dihydro-1H-isoquinolin-7-yl)amino]pyrazolo[3,4-d]pyrimidin-1-yl]methyl]cyclopentanecarboxylic Acid]	< 100
COc1cc2c(cc1Nc1ncc3cnn(CC[C@H](C)O)c3n1)CN(C)CC2 [Example 84, (S)-4-(6-((6-methoxy-2-methyl-1,2,3,4-tetrahydroisoquinolin-7-yl)amino)-1H-pyrazolo[3,4-d]pyrimidin-1-yl)butan-2-ol]	< 100
COc1cc2c(cc1Nc1ncc3cnn([C@H]4CCC[C@H](C(N)=O)C4)c3n1)CN(C)CC2 (racemic) [Example 29, rac-(1S,3S)-3-(6-((6-methoxy-2-methyl-1,2,3,4-tetrahydroisoquinolin-7-yl)amino)-1H-pyrazolo[3,4-d]pyrimidin-1-yl)cyclohexane-1-carboxamide]	< 100
COc1cc2c(cc1Nc1ncc3cnn(CCN(C)S(C)(=O)=O)c3n1)CN(C)CC2 [Example 92, N-[2-[6-[(6-methoxy-2-methyl-3,4-dihydro-1H-isoquinolin-7-yl)amino]pyrazolo[3,4-d]pyrimidin-1-yl]ethyl]-N-methyl-methanesulfonamide]	100 to 250
COc1cc2c(cc1Nc1ncc3cnn([C@H]4CC[C@H](OC)CC4)c3n1)CN(C)CC2 [Example 47, 6-methoxy-N-(1-(trans-4-methoxycyclohexyl)-1H-pyrazolo[3,4-d]pyrimidin-6-yl)-2-methyl-1,2,3,4-tetrahydroisoquinolin-7-amine]	< 100
COc1cc2c(cc1Nc1ncc3cnn([C@H]4C[C@@H](CO)C4)c3n1)CN(C)CC2 [Example 66, cis-[3-[6-[(6-methoxy-2-methyl-3,4-dihydro-1H-isoquinolin-7-yl)amino]pyrazolo[3,4-d]pyrimidin-1-yl]cyclobutyl]methanol]	< 100
COc1cc2c(cc1Nc1ncc3cnn(C4CCN(C(C)=O)CC4)c3n1)CN(C)CC2 [Example 106, 1-(4-(6-((6-methoxy-2-methyl-1,2,3,4-tetrahydroisoquinolin-7-yl)amino)-1H-pyrazolo[3,4-d]pyrimidin-1-yl)piperidin-1-yl)ethan-1-one trifluoroacetate]	< 100
